In assay [1] the target is T1, 5-HT1B receptor (Homo sapiens, UniProt P28222).
T1 construct: gene HTR1B; full-length human recombinant receptor in CHO-K1 cells (Ogeda); crude membranes
In words: biochemical. It is filed as CHO-K1 membranes. The arrangement: GTPγS agonist functional assay. Conditions: for EC50: GTPγS, read-out: 5‐HT1B / GTPγS (converted). The source says: (§1) Additionally, the reference values obtained were compared to historical values obtained from the same receptor and used to validate the experimental session. […] For the new assays developed in this study (i.e., 5‐ht1E receptor), the two independent pIC50 determined must be concordant with a 1 log unit interval for the assays to be validated.

Assay [2] concerns the target T2, 5-HT1D receptor (Homo sapiens, UniProt P28221).
T2 construct: gene HTR1D; full-length human recombinant receptor in CHO-K1 cells (Ogeda); crude membranes
The experiment in a line: biochemical. The format is CHO-K1 membranes. Also noted: GTPγS agonist functional assay. Conditions: for EC50: GTPγS, read-out: 5‐HT1D / GTPγS (converted).
Source text: as §1

In assay [3] the target is T3, 5-HT1F receptor (Homo sapiens, UniProt P30939).
T3 construct: gene HTR1F; full-length human recombinant receptor in CHO-K1 cells (Ogeda)
T3 sequence (P30939 1-366): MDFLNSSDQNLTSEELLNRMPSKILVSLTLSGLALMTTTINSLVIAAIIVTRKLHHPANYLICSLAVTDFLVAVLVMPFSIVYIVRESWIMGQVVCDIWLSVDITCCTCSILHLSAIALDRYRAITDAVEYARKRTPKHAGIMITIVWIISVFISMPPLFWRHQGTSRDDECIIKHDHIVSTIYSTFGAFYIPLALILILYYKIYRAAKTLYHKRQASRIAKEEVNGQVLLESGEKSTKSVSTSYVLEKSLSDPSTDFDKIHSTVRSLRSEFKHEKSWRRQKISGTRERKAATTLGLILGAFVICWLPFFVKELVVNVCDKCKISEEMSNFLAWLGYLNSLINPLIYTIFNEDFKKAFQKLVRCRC
In words: cell-based. Conditions: cAMP. Also noted: species or system CHO-K1; cAMP HTRF agonist assay, Gi coupled receptors, inhibition of stimulated cAMP. The protocol: Concentration–response curves were performed in parallel with the agonists. For agonist tests, 12 μl of cells were mixed with 6 μl of the test compound (at increasing concentrations) and 6 μl of https://www.guidetopharmacology.org/GRAC/LigandDisplayForward?ligandId=5190 and then incubated for 30 min at room temperature. After addition of the lysis buffer and 1‐hr incubation, cAMP concentrations were estimated according to the manufacturer specification with the HTRF kit (Cisbio International, Codelet, France). In brief, increasing concentrations of agonists were added to stably transfected cells in buffer in an Optiplate (PerkinElmer Life Sciences, Massachusetts, USA). The plates were incubated, and cells were then lysed by the addition of HTRF reagents (cAMP‐Cryptate and anti‐cAMP‐d2 reagents) and diluted in lysis buffer, followed by incubation at room temperature. As 5‐HT1B receptors have been reported in naïve CHO‐K1 cells (George, Bungay, & Naylor, 1997), we also tested https://www.guidetopharmacology.org/GRAC/LigandDisplayForward?ligandId=4 (5‐CT, the reference agonist for the 5‐HT1B receptor), in CHO‐K1 cells transfected with a non‐5‐HT, GPCR. […] For the new assays developed in this study (i.e., 5‐ht1E receptor), the two independent pIC50 determined must be concordant with a 1 log unit interval for the assays to be validated. […]

In assay [4] the target is T3, 5-HT1F receptor. In words: radioligand competition, CHO-K1 membranes. The format is binding. Conditions: radioligand listed in supplement Table S1; unreliable (pIC50 printed as <[…]). An excerpt:
radioligand competition, CHO-K1 membranes on 5-HT1F receptor

pEC50: −log10 of the molar value. Where a name gives a salt, the structure may show the parent alone. Read-outs that look alike come from different tables or passages of the source.

T2 sequence (P28221 whole entry): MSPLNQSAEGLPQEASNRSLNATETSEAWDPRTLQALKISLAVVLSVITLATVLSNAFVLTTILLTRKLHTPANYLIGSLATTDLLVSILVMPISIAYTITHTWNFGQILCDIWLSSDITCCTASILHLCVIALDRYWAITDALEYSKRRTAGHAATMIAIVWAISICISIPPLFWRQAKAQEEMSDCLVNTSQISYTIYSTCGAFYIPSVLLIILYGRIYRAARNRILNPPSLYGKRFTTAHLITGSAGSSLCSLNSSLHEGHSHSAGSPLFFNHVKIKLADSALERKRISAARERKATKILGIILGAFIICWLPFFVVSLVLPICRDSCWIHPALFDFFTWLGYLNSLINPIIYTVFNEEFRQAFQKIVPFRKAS
T1 sequence (P28222 whole entry): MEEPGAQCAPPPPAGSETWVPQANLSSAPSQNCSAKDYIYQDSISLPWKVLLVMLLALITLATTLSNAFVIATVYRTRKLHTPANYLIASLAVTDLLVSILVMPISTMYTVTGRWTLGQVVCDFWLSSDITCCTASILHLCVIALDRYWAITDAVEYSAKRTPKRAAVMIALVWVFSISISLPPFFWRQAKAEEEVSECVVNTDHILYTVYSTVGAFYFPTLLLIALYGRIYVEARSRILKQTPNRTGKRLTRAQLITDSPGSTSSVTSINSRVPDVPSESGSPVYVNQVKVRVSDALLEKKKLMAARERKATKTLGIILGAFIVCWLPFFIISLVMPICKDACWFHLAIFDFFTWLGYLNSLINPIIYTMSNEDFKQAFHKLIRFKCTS

For the compound `CNS(=O)(=O)CCc1ccc2[nH]cc(C3CCN(C)CC3)c2c1` [Naratriptan hydrochloride], in assay [1], the EC50 is 1.38 nM.

For `CNS(=O)(=O)Cc1ccc2[nH]cc(CCCN3CCN(c4ncncc4OC)CC3)c2c1` [Avitriptan fumarate], the EC50 in assay [1] was 2.09 nM; in assay [2] it was 0.537 nM.

As usually defined, the pEC50 is −log10 of the EC50, conventionally taken in molar units. Low values mean a large EC50, high ones a small EC50. Compound `CN(C)[C@@H]1CCc2[nH]c3ccc(NC(=O)c4ccc(F)cc4)cc3c2C1` [LY344864 hydrochloride] had a pEC50 in assay [3] of 8.72. In assay [2], the EC50 is 117 nM.

For the compound `CN1CCC[C@@H]1Cc1c[nH]c2ccc(CCS(=O)(=O)c3ccccc3)cc12` [Eletriptan hydrobromide], the results for the EC50 in assay [1] and in assay [2] were 8.13 nM and 0.912 nM, respectively.

Take `N#Cc1ccc(N2CCN(C(=O)COc3ccc4[nH]cc(CCN)c4c3)CC2)cc1` [Donitriptan hydrochloride]: the “5-HT1F / pKi” value in assay [4] was 5.18 -log M. For the same compound, the pEC50 in assay [1] was 9.52; in assay [2], 9.51.

For `CNC1CCc2[nH]c3ccc(C(N)=O)cc3c2C1` (racemic) [Frovatriptan racemate], the pEC50 in assay [3] is 7.10.

The record behind these values is publication PMC6965684, “Characterization of binding, functional activity, and contractile responses of the selective 5‐HT1F receptor agonist lasmiditan” (British Journal of Pharmacology, 2019).
